# Assay results published in patent US20250230511A1, “METHODS AND REAGENTS FOR […] VECTOR NUCLEIC ACID PRODUCTS” (Sana Biotechnology, Inc., priority 2021, published 2025).
# What was measured:
# [1] = tested on: VSV-G pseudotyped lentiviral vector (VG); type: cell-based
# [2] = tested on: VSV-G pseudotyped lentiviral vector (VG); type: cell-based; remark: listed apart in the source
structure (smiles),measurement,setting,value
Cc1ccnc2c1NC(=O)c1cccnc1N2C1CC1 [Nevirapine],determination of VCN based on assay of the DelU3 amplicon,[1],completely ablated
same,determination of VCN based on assay of the WPRE amplicon,[2],not substantially impacted
